Experimental data from US20200337993A1, “INTRACANALICULAR HYDROGEL INSERTS FOR THE DELIVERY OF ANESTHETICS” (Ocular Therapeutix, Inc., priority 2019, published 2020).
Where two headings read alike, the source gives them in different places.

How the values were obtained:
[1] = Bupivacaine concentrations in tear fluid after intracanalicular administration (LC/MS of Schirmer strip samples); assay type: in vivo, beagle dogs; details: female, beagle, dog, other: intracanalicular, 160 μg; for concentration at 2 day: Day 2, N=3, intracanalicular Inventive Composition insert; for concentration at 3 day: Day 3, N=6, intracanalicular Inventive Composition insert; for concentration at 4 day: Day 4, N=6, intracanalicular Inventive Composition insert; for concentration at 5 day: Day 5, N=3, intracanalicular Inventive Composition insert
Description: Corneal wounds were created in both eyes (OU) of ten female beagle dogs on Day 0 using epithelial debridement. Animals were post-operatively monitored and treated with eye drops. The Inventive Composition (IC) containing approximately 160 μg of bupivacaine was inserted into the lower or upper lid punctum of one eye of all ten dogs on Day 0 after corneal wounding and removed on Day 7 after wounding. Clinical ophthalmic examinations (slit-lamp biomicroscopy) were conducted daily on weekdays through Day 7. Fluorescein staining was performed and slit-lamp photographs were taken on Days 0, 3, 5, and 7 (Group 1) or on Days 0, 2, 4, and 7 (Group 2). Corneal esthesiometry was performed at baseline and on Days 0, 3-7, 10-14, 31-35, and 38-42 (Group 1) or on Days 0-4, 7-11, 14, 28-32, and 35-39 (Group 2). General health observations and gross ocular observations were performed daily from Day 1 through Day 11 (Group 1) or Day 8 (Group 2). Body weights were recorded prior to dosing and on Day 7. Tears were collected on Days 3, 4, and 5 (Group 1) or on Days 1, 2, 3, and 4 (Group 2). The two groups were staggered in order to collect tear film samples on days 1, 2, 3, 4 and 5 using Schirmer test strips. Tear film samples were collected in the morning prior to administration of drops, in order to avoid dilution of the samples. Pre and post weights were collected on the tear film strips, and samples were sent to PharmOptima, LLC (Portage, Mich.) for bioanalysis via LC/MS. The PK portion of the study measured concentrations of bupivacaine released from the Inventive Composition into the tear fluid over 5 days following intracanalicular administration in beagle dogs and results are presented in Table 3. Tear fluid samples were collected pre-drop administration to prevent dilution of the bupivacaine concentrations. The PK profile indicates elevated concentrations of bupivacaine in the tear fluid through 4 days with a decrease observed at 5 days.

[2] = In vitro release of bupivacaine from the Inventive Composition in PBS, pH 7.4 at 37° C.; assay type: physicochemical
[3] = read-out: Bupivacaine concentration in tear fluid, Average
[4] = read-out: Bupivacaine concentration in tear fluid, Maximum
[5] = read-out: Bupivacaine concentration in tear fluid, Median
[6] = read-out: Bupivacaine concentration in tear fluid, Minimum

concentration at 1 day ([1]; Day 1, N=3, intracanalicular Inventive Composition insert (approx. 160 μg bupivacaine), Groups 1 and 2, read-out: Bupivacaine concentration in tear fluid, Average): 780 ng/mL
concentration at 1 day ([1]; Day 1, N=3, intracanalicular Inventive Composition insert, read-out: Bupivacaine concentration in tear fluid, Maximum): 1520 ng/mL
concentration at 1 day ([1]; Day 1, N=3, intracanalicular Inventive Composition insert, read-out: Bupivacaine concentration in tear fluid, Median): 550 ng/mL
concentration at 1 day ([1]; Day 1, N=3, intracanalicular Inventive Composition insert, read-out: Bupivacaine concentration in tear fluid, Minimum): 280 ng/mL
concentration at 2 day [1, 3]: 380 ng/mL
concentration at 2 day [1, 4]: 770 ng/mL
concentration at 2 day [1, 5]: 230 ng/mL
concentration at 2 day [1, 6]: 150 ng/mL
concentration at 3 day [1, 3]: 740 ng/mL
concentration at 3 day [1, 4]: 1520 ng/mL
concentration at 3 day [1, 5]: 590 ng/mL
concentration at 3 day [1, 6]: 100 ng/mL
concentration at 4 day [1, 3]: 570 ng/mL
concentration at 4 day [1, 4]: 1180 ng/mL
concentration at 4 day [1, 5]: 450 ng/mL
concentration at 4 day [1, 6]: 80 ng/mL
concentration at 5 day [1, 3]: 250 ng/mL
concentration at 5 day [1, 4]: 430 ng/mL
concentration at 5 day [1, 5]: 230 ng/mL
concentration at 5 day [1, 6]: 100 ng/mL
Bupivacaine Release Rate ([2]; in vitro sampling period 0-1 hours (burst phase)): 14.6 µg/h
Bupivacaine Release Rate ([2]; in vitro sampling period 1-18 hours): 3.4 µg/h
Bupivacaine Release Rate ([2]; in vitro sampling period 18-26 hours): 1.5 µg/h
Bupivacaine Release Rate ([2]; in vitro sampling period 26-42 hours): 1.1 µg/h
Bupivacaine Release Rate ([2]; in vitro sampling period 42-68 hours): 1.0 µg/h
Bupivacaine Release Rate ([2]; in vitro sampling period 68-93 hours): 0.6 µg/h
Bupivacaine Release Rate ([2]; in vitro sampling period 93-115 hours): 0.4 µg/h
Bupivacaine Release Rate ([2]; in vitro sampling period 115-168 hours): 0.1 µg/h
Structure (SMILES): CCCCN1CCCCC1C(=O)Nc1c(C)cccc1C (stereo not shown) [Bupivacaine, bupivacaine]
